Calls of active or inactive are those of the source. The rule behind the calls is not given here.
Legend:
[1] = target: T1, Ubiquitin carboxyl-terminal hydrolase 7 (Homo sapiens, UniProt Q93009); assay: Inhibition of USP7 (unknown origin) using ubiquitin-EKL as substrate at 20 uM
Target sequence in this assay (Q93009 whole entry, looked up): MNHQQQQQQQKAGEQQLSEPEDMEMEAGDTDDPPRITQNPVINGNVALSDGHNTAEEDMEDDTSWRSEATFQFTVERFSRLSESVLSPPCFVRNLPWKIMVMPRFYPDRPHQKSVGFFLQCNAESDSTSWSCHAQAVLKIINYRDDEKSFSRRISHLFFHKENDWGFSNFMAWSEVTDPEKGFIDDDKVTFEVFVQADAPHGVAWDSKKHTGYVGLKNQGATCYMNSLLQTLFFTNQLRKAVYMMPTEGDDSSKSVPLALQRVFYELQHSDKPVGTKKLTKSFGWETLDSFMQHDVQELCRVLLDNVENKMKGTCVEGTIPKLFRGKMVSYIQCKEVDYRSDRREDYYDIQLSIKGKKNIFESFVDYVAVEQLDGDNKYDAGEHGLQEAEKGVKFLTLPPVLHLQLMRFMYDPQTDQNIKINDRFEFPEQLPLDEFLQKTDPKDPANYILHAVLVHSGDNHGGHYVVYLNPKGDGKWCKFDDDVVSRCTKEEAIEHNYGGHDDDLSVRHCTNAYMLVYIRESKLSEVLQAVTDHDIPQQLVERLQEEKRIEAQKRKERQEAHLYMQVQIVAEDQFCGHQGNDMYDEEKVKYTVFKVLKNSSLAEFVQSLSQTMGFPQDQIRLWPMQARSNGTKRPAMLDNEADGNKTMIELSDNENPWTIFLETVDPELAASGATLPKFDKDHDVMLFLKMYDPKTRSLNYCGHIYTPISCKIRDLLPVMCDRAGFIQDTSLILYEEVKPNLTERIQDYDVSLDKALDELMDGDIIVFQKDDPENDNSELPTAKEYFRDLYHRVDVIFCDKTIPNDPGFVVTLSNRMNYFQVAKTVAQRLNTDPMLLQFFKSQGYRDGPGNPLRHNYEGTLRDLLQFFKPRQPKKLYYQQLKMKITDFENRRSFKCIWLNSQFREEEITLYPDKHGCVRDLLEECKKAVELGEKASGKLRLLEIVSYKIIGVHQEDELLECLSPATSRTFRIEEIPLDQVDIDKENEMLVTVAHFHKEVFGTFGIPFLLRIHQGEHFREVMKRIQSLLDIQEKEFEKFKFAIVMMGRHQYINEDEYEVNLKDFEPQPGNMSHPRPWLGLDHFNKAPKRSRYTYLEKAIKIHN

[2] = target: T1, Ubiquitin carboxyl-terminal hydrolase 7; assay: Inhibition of USP7 (unknown origin) using ubiquitin-EKL as substrate
Target sequence in this assay (Q93009 whole entry): as the sequence (Q93009 whole entry, looked up) above

[3] = test system: HCT-116; assay: Antiproliferative activity against p53 wild type human HCT116 cells expressing USP7 assessed as growth inhibition up to 50 uM; format: functional, cell-based
[4] = target: T2, Sentrin-specific protease 1 (Homo sapiens, UniProt Q9P0U3); assay: Inhibition of core catalytic domain of SENP1 (unknown origin) using SUMO3-EKL as substrate
T2 sequence (Q9P0U3 whole entry): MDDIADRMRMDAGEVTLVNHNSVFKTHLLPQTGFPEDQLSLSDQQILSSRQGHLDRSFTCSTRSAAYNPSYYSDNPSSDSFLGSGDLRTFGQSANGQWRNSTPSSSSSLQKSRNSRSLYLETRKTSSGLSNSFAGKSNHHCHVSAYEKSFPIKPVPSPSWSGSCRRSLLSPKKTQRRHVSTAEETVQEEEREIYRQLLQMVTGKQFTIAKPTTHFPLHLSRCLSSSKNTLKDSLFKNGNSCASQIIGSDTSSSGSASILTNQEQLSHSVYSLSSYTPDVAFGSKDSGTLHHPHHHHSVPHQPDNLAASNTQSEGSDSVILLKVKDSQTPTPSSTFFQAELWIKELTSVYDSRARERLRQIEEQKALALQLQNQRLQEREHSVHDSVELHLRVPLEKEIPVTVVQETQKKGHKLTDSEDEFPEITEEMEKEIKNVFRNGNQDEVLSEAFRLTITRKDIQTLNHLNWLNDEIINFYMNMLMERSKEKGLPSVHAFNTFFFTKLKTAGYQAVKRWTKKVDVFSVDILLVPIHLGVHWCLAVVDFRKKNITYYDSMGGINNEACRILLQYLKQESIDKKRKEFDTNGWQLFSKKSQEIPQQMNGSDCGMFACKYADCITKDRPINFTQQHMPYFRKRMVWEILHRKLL

[5] = target: T3, Ubiquitin carboxyl-terminal hydrolase 21 (Homo sapiens, UniProt Q9UK80); assay: Inhibition of core catalytic domain of USP21 (unknown origin) using ubiquitin-Rh110 as substrate
T3 sequence (Q9UK80 whole entry): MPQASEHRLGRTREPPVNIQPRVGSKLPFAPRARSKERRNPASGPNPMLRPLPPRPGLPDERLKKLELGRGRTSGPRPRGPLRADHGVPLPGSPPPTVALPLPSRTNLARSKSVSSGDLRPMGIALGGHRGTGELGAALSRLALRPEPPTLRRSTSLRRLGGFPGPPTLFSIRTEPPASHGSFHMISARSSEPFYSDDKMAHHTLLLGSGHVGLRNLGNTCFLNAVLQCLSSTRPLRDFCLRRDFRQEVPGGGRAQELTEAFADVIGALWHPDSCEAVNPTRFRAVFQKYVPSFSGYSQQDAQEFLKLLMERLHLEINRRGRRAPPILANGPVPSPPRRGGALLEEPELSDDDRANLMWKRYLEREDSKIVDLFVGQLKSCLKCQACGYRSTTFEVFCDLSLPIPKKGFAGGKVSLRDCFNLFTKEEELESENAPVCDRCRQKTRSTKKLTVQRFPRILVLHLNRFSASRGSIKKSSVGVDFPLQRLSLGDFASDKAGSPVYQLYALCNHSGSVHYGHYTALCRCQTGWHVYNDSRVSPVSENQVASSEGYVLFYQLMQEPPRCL

[6] = target: T4, Ubiquitin carboxyl-terminal hydrolase 8 (Homo sapiens, UniProt P40818); assay: Inhibition of core catalytic domain of USP8 (unknown origin) using ubiquitin-Rh110 as substrate
T4 sequence (P40818 whole entry): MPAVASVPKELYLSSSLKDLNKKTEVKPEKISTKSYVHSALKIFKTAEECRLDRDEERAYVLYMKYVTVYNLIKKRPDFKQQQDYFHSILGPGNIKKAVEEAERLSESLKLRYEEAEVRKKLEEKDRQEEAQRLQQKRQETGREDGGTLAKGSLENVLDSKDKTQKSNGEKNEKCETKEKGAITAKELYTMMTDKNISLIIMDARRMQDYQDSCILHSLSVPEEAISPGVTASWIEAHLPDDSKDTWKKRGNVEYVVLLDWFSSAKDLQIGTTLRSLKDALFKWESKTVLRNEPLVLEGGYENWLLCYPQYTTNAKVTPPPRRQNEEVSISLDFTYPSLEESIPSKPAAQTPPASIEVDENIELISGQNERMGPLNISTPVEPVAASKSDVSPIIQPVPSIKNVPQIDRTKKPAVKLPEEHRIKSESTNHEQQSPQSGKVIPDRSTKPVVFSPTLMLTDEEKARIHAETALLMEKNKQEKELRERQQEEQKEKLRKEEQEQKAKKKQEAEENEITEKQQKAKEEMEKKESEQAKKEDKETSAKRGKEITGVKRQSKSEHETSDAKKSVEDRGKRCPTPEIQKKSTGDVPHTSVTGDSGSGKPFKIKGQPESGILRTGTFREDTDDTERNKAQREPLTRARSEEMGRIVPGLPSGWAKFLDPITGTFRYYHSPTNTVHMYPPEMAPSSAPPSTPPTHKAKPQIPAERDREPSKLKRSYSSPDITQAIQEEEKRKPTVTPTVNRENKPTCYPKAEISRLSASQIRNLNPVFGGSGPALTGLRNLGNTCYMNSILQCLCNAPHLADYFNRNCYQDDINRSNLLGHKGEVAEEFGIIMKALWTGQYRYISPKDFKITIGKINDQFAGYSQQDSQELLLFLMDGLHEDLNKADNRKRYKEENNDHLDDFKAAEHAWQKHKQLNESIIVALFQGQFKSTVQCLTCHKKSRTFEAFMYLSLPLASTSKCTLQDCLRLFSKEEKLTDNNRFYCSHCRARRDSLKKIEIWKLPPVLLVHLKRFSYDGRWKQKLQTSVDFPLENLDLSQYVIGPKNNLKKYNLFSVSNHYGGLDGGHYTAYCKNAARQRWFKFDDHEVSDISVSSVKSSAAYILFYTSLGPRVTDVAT

[7] = target: T5, Ubiquitin carboxyl-terminal hydrolase 2 (Homo sapiens, UniProt O75604); assay: Inhibition of core catalytic domain of USP2 (unknown origin) using diubiquitin IQF K4804 as substrate
T5 sequence (O75604 whole entry): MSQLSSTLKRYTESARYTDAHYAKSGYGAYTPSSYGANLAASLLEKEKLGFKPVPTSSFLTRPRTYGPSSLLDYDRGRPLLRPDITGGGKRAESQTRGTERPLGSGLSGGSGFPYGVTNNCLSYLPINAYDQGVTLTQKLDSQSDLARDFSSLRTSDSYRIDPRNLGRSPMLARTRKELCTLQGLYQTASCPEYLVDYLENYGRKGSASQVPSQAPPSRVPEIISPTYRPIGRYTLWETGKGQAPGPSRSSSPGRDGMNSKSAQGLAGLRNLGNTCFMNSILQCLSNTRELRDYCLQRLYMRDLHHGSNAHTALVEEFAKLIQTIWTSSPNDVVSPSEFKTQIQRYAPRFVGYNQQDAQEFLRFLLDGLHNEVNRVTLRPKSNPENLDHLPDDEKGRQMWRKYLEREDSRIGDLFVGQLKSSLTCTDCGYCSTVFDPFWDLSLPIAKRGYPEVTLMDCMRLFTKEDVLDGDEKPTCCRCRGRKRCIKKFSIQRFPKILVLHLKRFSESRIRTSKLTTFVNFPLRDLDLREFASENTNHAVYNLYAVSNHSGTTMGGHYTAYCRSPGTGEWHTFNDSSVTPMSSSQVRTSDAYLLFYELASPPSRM

Row | SMILES | inhibition [1] [%] | IC50 [2] [µM] | also measured
1 | NC1=NC(=O)/C(=C2\CCNC(=O)c3[nH]c(Br)cc32)N1 | 20 | – | –
2 | CCN(CCCNC(=O)c1ccc2nc3c(c(Cl)c2c1)CCCC3)Cc1ccccc1 | – | 22.6 | –
3 | NC1=N/C(=C2/CCNC(=O)c3[nH]ccc32)C(=O)N1 | 20 | – | –
4 | CN(CCCNC(=O)c1ccc2nc3c(c(Cl)c2c1)CCCC3)Cc1ccccc1 | – | 28.1 | –
5 | O=C1NC(=O)/C(=C2\CCNC(=O)c3[nH]ccc32)N1 [SPONGIACIDIN C] | – | 3.8 | growth inhibition (GI) [3]: inactive; IC50 [4]: > 31.6 µM; IC50 [5]: 16.6 µM; IC50 [6]: > 31.6 µM; IC50 [7]: > 31.6 µM
6 | N#Cc1nc2c(nc1C#N)-c1ccc(Cl)cc1C2=O | – | 0.42 | –

Source: ChEMBL document CHEMBL2396580, “Spongiacidin C, a pyrrole alkaloid from the marine sponge Stylissa massa, functions as a USP7 inhibitor” (Bioorg Med Chem Lett, 2013)
